This is an account of results in patent publication US11578343B2, “CAS9 proteins including ligand-dependent inteins” (President and Fellows of Harvard College, priority 2014, dated 2023).

Common to all, as to format: cell-based, human
One series relates to HEK293-GFP stable cells. Put plainly: Effect of 4-HT on cellular toxicity (live cell population, TO-PRO-3 stain, flow cytometry). Particulars: 12 or 60 h of treatment with 1 μM 4-HT; untransfected or transfected HEK293 cells; FIG. 5. Here is the method: FIG. 5. Effect of 4-HT on cellular toxicity. Untransfected HEK293-GFP stable cells, and cells transfected with intein-Cas9(5219) and sgRNA expression plasmids, were treated with or without 4-HT (1 μM). 12 h after transfection, the media was replaced with full serum media, with or without 4-HT (1 μM). Cells were thus exposed to 4-HT for 0, 12, or 60 h. The live cell population was determined by flow cytometry 60 h after transfection using TO-PRO-3 stain (Life Technologies). Error bars reflect the standard deviation of six technical replicates.
We assayed these Cas9:sgRNA combinations in human cells for their ability to modify the three on-target loci as well as 11 known off-target genomic sites (Table 3)^4,5,10,13. Cells were treated with or without 1 μM 4-HT during transfection, and after 12 h the media was replaced with fresh media lacking 4-HT. […] Genomic DNA was isolated 60 h post-transfection and analyzed by high-throughput DNA sequencing
A general note: Flow cytometry measures light scatter and fluorescence of single cells or particles in a stream.

Series [1] has as its system genomic EGFP locus. Put plainly: Genomic EGFP disruption in HEK293-GFP stable cells (loss of GFP by flow cytometry). Conditions: for Loss of GFP expression / nuclease activity, in words: with or without 1 μM 4-HT, FIG. 3c. Here is the method:
HEK293-GFP stable cells were transfected with the Cas9 expression plasmid, a gRNA (targeting Emerald GFP; Guilinger et al., Nature Biotechnology (2014)), and iRFP670 (transfection control), using Lipofectamine 2000. Twelve hours after transfection, media, either containing 4-HT (1 μM) or without 4-HT, was added.
Five days after transfection, cells were trypsinized and analyzed on a flow cytometer. Cells lacking GFP indicated genome modification. Cas9 variants that induced minimal genome modification in the absence of 4-HT but induce significant genome modification in the presence of 4-HT were deemed small-molecule-regulated variants in this Example.
Additionally, a time course was performed in which incubation with 4-HT was limited to 2, 4, 8, 12 or 24 hours, after which point the media was replaced.
We genetically inserted the 4-HT-dependent intein at each of fifteen positions in Cas9 (Cys80, Ala127, Thr146, Ser219, Thr333, Thr519, Cys574, Thr622, Ser701, Ala728, Thr995, Ser1006, Ser1154, Ser1159, and Ser1274), chosen to distribute the location of the intein across the structural domains of Cas9^23 (FIG. 3b and Example 1). Because intein splicing leaves behind a single Cys residue, the intein was inserted in place of one Cas9 amino acid in each of the 15 candidate constructs. In addition to replacing natural Cys amino acids, we also favored replacing Ala, Ser, or Thr residues to minimize the likelihood that the resulting Cys point mutation resulting from protein splicing would disrupt Cas9 activity. The 15 intein-Cas9 candidates were expressed in HEK293-GFP cells together with a sgRNA that targets the genomic EGFP locus in these cells. Twelve hours post-transfection, cells were treated with or without 1 μM 4-HT. Five days post-transfection, cells were analyzed on a flow cytometer for loss of GFP expression from Cas9-mediated EGFP cleavage and subsequent non-homologous end joining.
Modification of genomic GFP. HEK293-GFP stable cells (GenTarget), which constitutively express Emerald GFP, served as the reporter cell line. Cells were maintained in “full serum media”: Dulbecco's Modified Eagle's Media plus GlutaMax (Life Technologies) with 10% (vol/vol) FBS and penicillin/streptomycin (1×, Amresco). 5×10^4 cells were plated on 48-well collagen-coated Biocoat plates (Becton Dickinson). 16-18 h after plating, cells were transfected with Lipofectamine 2000 (Life Technologies) according to the manufacturer's protocol. Briefly, 1.5 μL of Lipofectamine 2000 was used to transfect 650 ng of total plasmid: 500 ng Cas9 expression plasmid, 125 ng sgRNA expression plasmid, and 25 ng near-infrared iRFP670 expressing plasmid (Addgene plasmid 45457)^26. 12 h after transfection, the media was replaced with full serum media, with or without 4-HT (1 μM, Sigma-Aldrich T176). The media was replaced again 3-4 days after transfection. Five days after transfection, cells were trypsinized and resuspended in full serum media and analyzed on a C6 flow cytometer (Accuri) with a 488-nm laser excitation and 520-nm filter with a 20-nm band pass. Transfections and flow cytometry measurements were performed in triplicate.

Series [2] deals with genomic EGFP locus. The series is described as above. Conditions: FIG. 12.
The mark [3] stands for this setting: +4-HT 2 hrs, then media replaced, Table 2.
[4] abbreviates: +4-HT 4 hrs, then media replaced, Table 2.
Setting [5] is: +4-HT 8 hrs, then media replaced, Table 2.
The mark [6] stands for this setting: +4-HT 12 hrs, then media replaced, Table 2.
[7] abbreviates: +4-HT 24 hrs, then media replaced, Table 2.
The mark [8] stands for this setting: +4-HT (1 μM, added 12 h after transfection), five days after transfection, Table 1.
Where [9] appears, read: −4-HT, five days after transfection, Table 1.

In the case of 4-hydroxytamoxifen [4-HT], the Cellular toxicity entry with HEK293-GFP stable cells is given as “no cellular toxicity”.

Consider “intein(Ala127)-Cas9: Cas9 with 37R3-2 intein replacing Ala127 (SEQ ID NO: 28)”, for which the “Cells without GFP (%)” value with genomic EGFP locus [1] (setting [3]) turned out to be 18.95%; in the series on genomic EGFP locus [1] (setting [4]), 18.57%; in the series with genomic EGFP locus [1] (setting [5]) it was 18.64%; in the series with genomic EGFP locus [1] (setting [6]), 18.35%; with genomic EGFP locus [1] (setting [7]) it was 16.83%; in the series on genomic EGFP locus [1] (setting [8]) it was 19.73%. Moreover, the “Cells without GFP (%)” value in the series on genomic EGFP locus [1] (setting [9]) is on record as 7.97%; in the series on genomic EGFP locus [1] (−4-HT, time course, Table 2), 5.03%. The “Loss of GFP expression / nuclease activity, in words” value in the series with genomic EGFP locus [1] is reported as 4-HT-dependent loss of GFP expression.

For “intein(Ala728)-Cas9: Cas9 with 37R3-2 intein replacing Ala728 (SEQ ID NO: 36)”, the results for the “Cells without GFP (%)” value with genomic EGFP locus [1] (setting [8]) and with genomic EGFP locus [1] (setting [9]) were 41.89% and 20.82%, respectively. In the series on genomic EGFP locus [1], the “Loss of GFP expression / nuclease activity, in words” value is “high DNA modification rates both in the presence and absence of 4-HT”.

On to “intein(Cys80)-Cas9: Cas9 with 37R3-2 intein replacing Cys80 (SEQ ID NO: 27)”, for which the “Cells without GFP (%)” value turned out to be 4.96% in the series on genomic EGFP locus [1] (setting [8]) and 7.08% in the series on genomic EGFP locus [1] (setting [9]). Moreover, in the series on genomic EGFP locus [1], the “Loss of GFP expression / nuclease activity, in words” value is on record as “lack of nuclease activity”.

Consider “intein(Ser701)-Cas9: Cas9 with 37R3-2 intein replacing Ser701 (SEQ ID NO: 35)”, for which the results for the “Cells without GFP (%)” value in the series on genomic EGFP locus [1] (setting [8]) and in the series on genomic EGFP locus [1] (setting [9]) were 9.56% and 6.54%, respectively. Moreover, the “Loss of GFP expression / nuclease activity, in words” value in the series with genomic EGFP locus [1] was “lack of nuclease activity”.

As to “intein(Ser1006)-Cas9: Cas9 with 37R3-2 intein replacing Ser1006 (SEQ ID NO: 38)”, the “Cells without GFP (%)” value with genomic EGFP locus [1] (setting [8]) is listed as 12.61%; with genomic EGFP locus [1] (setting [9]) it was 6.80%. Besides, the “Loss of GFP expression / nuclease activity, in words” value in the series on genomic EGFP locus [1] was 4-HT-dependent loss of GFP expression.

In the case of “intein(Ser1154)-Cas9: Cas9 with 37R3-2 intein replacing Ser1154 (SEQ ID NO: 39)”, the “Cells without GFP (%)” value in the series on genomic EGFP locus [1] (setting [8]) came to 41.94%; in the series with genomic EGFP locus [1] (setting [9]) it was 21.14%. Also, the “Loss of GFP expression / nuclease activity, in words” value in the series on genomic EGFP locus [1] is “high DNA modification rates both in the presence and absence of 4-HT”.

In the case of “intein(Ser1159)-Cas9: Cas9 with 37R3-2 intein replacing Ser1159 (SEQ ID NO: 40)”, the “Cells without GFP (%)” value with genomic EGFP locus [1] (setting [8]) was 13.21%; in the series on genomic EGFP locus [1] (setting [9]), 5.65%. Moreover, the “Loss of GFP expression / nuclease activity, in words” value in the series on genomic EGFP locus [1] is listed as 4-HT-dependent loss of GFP expression.

Regarding “intein(Ser1274)-Cas9: Cas9 with 37R3-2 intein replacing Ser1274 (SEQ ID NO: 41)”, the “Cells without GFP (%)” value in the series with genomic EGFP locus [1] (setting [8]) was 5.00%; with genomic EGFP locus [1] (setting [9]), 3.08%. The “Loss of GFP expression / nuclease activity, in words” value in the series with genomic EGFP locus [1] is “lack of nuclease activity”.

With “intein(Thr146)-Cas9: Cas9 with 37R3-2 intein replacing Thr146 (SEQ ID NO: 29)”, the “Cells without GFP (%)” value turned out to be 16.29% with genomic EGFP locus [1] (setting [3]); 15.07% in the series with genomic EGFP locus [1] (setting [4]); 13.65% with genomic EGFP locus [1] (setting [5]); 14.44% in the series with genomic EGFP locus [1] (setting [6]); 19.57% in the series with genomic EGFP locus [1] (setting [7]); 21.60% in the series with genomic EGFP locus [1] (setting [8]). The “Cells without GFP (%)” value was determined as 8.77% with genomic EGFP locus [1] (setting [9]) and 4.28% with genomic EGFP locus [1] (−4-HT, time course, Table 2). Besides, the “Loss of GFP expression / nuclease activity, in words” value in the series on genomic EGFP locus [1] is given as 4-HT-dependent loss of GFP expression.

As for “intein(Thr333)-Cas9: Cas9 with 37R3-2 intein replacing Thr333 (SEQ ID NO: 31)”, the “Cells without GFP (%)” value in the series on genomic EGFP locus [1] (setting [8]) was 9.17%; in the series with genomic EGFP locus [1] (setting [9]), 4.96%. Further, the “Loss of GFP expression / nuclease activity, in words” value in the series with genomic EGFP locus [1] is given as 4-HT-dependent loss of GFP expression.

Turning to “intein(Thr519)-Cas9: Cas9 with 37R3-2 intein replacing Thr519 (SEQ ID NO: 32)”, the “Cells without GFP (%)” value is reported as 14.55% in the series on genomic EGFP locus [1] (setting [3]); 13.98% in the series with genomic EGFP locus [1] (setting [4]); 14.74% in the series with genomic EGFP locus [1] (setting [5]); 13.93% in the series with genomic EGFP locus [1] (setting [6]); 18.04% with genomic EGFP locus [1] (setting [7]); 25.96% in the series on genomic EGFP locus [1] (setting [8]). For the same substance, the “Cells without GFP (%)” value in the series with genomic EGFP locus [1] (setting [9]) came out at 9.49%; with genomic EGFP locus [1] (−4-HT, time course, Table 2), 4.29%. Further, the “Loss of GFP expression / nuclease activity, in words” value in the series with genomic EGFP locus [1] is recorded as 4-HT-dependent loss of GFP expression.

Consider “intein(Thr622)-Cas9: Cas9 with 37R3-2 intein replacing Thr622 (SEQ ID NO: 34)”, for which the “Cells without GFP (%)” value is listed as 3.96% with genomic EGFP locus [1] (setting [8]) and 5.67% in the series with genomic EGFP locus [1] (setting [9]). Besides, in the series with genomic EGFP locus [1], the “Loss of GFP expression / nuclease activity, in words” value is “lack of nuclease activity”.

Turning to “intein(Thr995)-Cas9: Cas9 with 37R3-2 intein replacing Thr995 (SEQ ID NO: 37)”, the figures for the “Cells without GFP (%)” value with genomic EGFP locus [1] (setting [8]) and in the series on genomic EGFP locus [1] (setting [9]) were 21.39% and 14.95%, respectively. The “Loss of GFP expression / nuclease activity, in words” value in the series with genomic EGFP locus [1] was “high DNA modification rates both in the presence and absence of 4-HT”.

“intein-Cas9(5219-G521R): intein-Cas9(S219) with point mutation G521R in the estrogen receptor ligand-binding domain (probably SEQ ID NO: 166)”: the “Ability of β-estradiol to trigger Cas9 activity (genomic EGFP disruption)” value with genomic EGFP locus [2] is “eliminates the ability of β-estradiol to trigger Cas9 activity”.
